{"source": "ChEMBL document CHEMBL6078666", "about": "“Discovery of Novel Coumarin Pleuromutilin Derivatives as Potent Anti-MRSA Agents” (J Med Chem, 2024)", "key": {"[1]": {"system": "Staphylococcus aureus", "assay": "Antibacterial activity against methicillin-resistant Staphylococcus aureus ATCC 33591 assessed as bacterial growth inhibition measured after 20 hrs by broth dilution method", "type": "functional"}, "[2]": {"system": "Staphylococcus aureus", "assay": "Antibacterial activity against methicillin-resistant Staphylococcus aureus ATCC 43300 assessed as bacterial growth inhibition measured after 20 hrs by broth dilution method", "type": "functional"}, "[3]": {"system": "Staphylococcus epidermidis", "assay": "Antibacterial activity against Staphylococcus epidermidis ATCC 51625 assessed as bacterial growth inhibition measured after 20 hrs by broth dilution method", "type": "functional"}, "[4]": {"system": "Enterococcus faecium", "assay": "Antibacterial activity against vancomycin-resistant Enterococcus faecium ATCC 51559 assessed as bacterial growth inhibition measured after 20 hrs by broth dilution method", "type": "functional"}, "[5]": {"system": "Streptococcus pneumoniae", "assay": "Antibacterial activity against penicillin-resistant Streptococcus pneumoniae ATCC 51916 assessed as bacterial growth inhibition measured after 20 hrs by broth dilution method", "type": "functional"}, "[6]": {"system": "Staphylococcus aureus", "assay": "Ratio of MBC to MIC against methicillin-resistant Staphylococcus aureus ATCC 33591", "type": "functional"}, "[7]": {"system": "Staphylococcus aureus", "assay": "Ratio of MBC to MIC against Staphylococcus aureus ATCC 43300", "type": "functional"}, "[8]": {"system": "Staphylococcus epidermidis", "assay": "Ratio of MBC to MIC against Staphylococcus epidermidis ATCC 51625", "type": "functional"}, "[9]": {"system": "Staphylococcus aureus", "assay": "Antibacterial activity against methicillin-resistant Staphylococcus aureus clinical isolate 202313160 assessed as bacterial growth inhibition measured after 20 hrs by broth dilution method", "type": "functional"}, "[10]": {"system": "Staphylococcus aureus", "assay": "Antibacterial activity against methicillin-resistant Staphylococcus aureus clinical isolate 202405157 assessed as bacterial growth inhibition measured after 20 hrs by broth dilution method", "type": "functional"}, "[11]": {"system": "Staphylococcus epidermidis", "assay": "Antibacterial activity against methicillin-resistant Staphylococcus epidermidis clinical isolate 202409139 assessed as bacterial growth inhibition measured after 20 hrs by broth dilution method", "type": "functional"}, "[12]": {"system": "Staphylococcus aureus", "assay": "Ratio of MBC to MIC against methicillin-resistant Staphylococcus aureus clinical isolate 202405157", "type": "functional"}, "[13]": {"system": "Staphylococcus epidermidis", "assay": "Ratio of MBC to MIC against methicillin-resistant Staphylococcus epidermidis clinical isolate 202409139", "type": "functional"}, "[14]": {"system": "Staphylococcus aureus", "assay": "Bactericidal activity against methicillin-resistant Staphylococcus aureus ATCC 33591 at 2 times MIC measured after 8 to 12 hrs by time kill assay", "type": "functional, organism-based", "settings": "time 8-12 hrs"}, "[15]": {"system": "Staphylococcus aureus", "assay": "Bactericidal activity against methicillin-resistant Staphylococcus aureus ATCC 33591 at 4 to 8 times MIC measured after 6 to 8 hrs by time kill assay", "type": "functional, organism-based", "settings": "time 6-8 hrs"}, "[16]": {"system": "Staphylococcus aureus", "assay": "Bactericidal activity against methicillin-resistant Staphylococcus aureus ATCC 33591 measured upto 24 hrs by time kill assay", "type": "functional, organism-based"}, "[17]": {"system": "Staphylococcus aureus", "assay": "Drug resistance, ratio of MIC for Staphylococcus aureus ATCC 33591 after 8 days to MIC for methicillin-resistant Staphylococcus aureus ATCC 33591 after initial exposure", "type": "functional", "settings": "time 8 day"}, "[18]": {"system": "Staphylococcus aureus", "assay": "Antibacterial activity against Staphylococcus aureus ATCC 33591 measured after 9 days", "type": "functional, organism-based", "settings": "time 9.0 day"}, "[19]": {"system": "Staphylococcus aureus", "assay": "Antibacterial activity against methicillin resistant Staphylococcus aureus ATCC 33591 assessed as post antibiotic effect at 4 times MIC by time kill assay", "type": "functional"}, "[20]": {"system": "Staphylococcus aureus", "assay": "Antibiofilm activity in methicillin-resistant Staphylococcus aureus ATCC 33591 assessed as inhibition of biofilm formation at 1/16 time MIC measured after 48 hrs by crystal violet staining based analysis relative to control", "type": "functional", "set-up": "scale not given: the % may be the effect or the level left"}, "[21]": {"system": "Staphylococcus aureus", "assay": "Antibiofilm activity in methicillin-resistant Staphylococcus aureus ATCC 33591 assessed as inhibition of biofilm formation measured after 48 hrs by crystal violet staining based analysis relative to control", "type": "functional, organism-based"}, "[22]": {"system": "Staphylococcus aureus", "assay": "Antibiofilm activity in methicillin-resistant Staphylococcus aureus ATCC 33591 assessed as disruption of preformed biofilm at 1 time MIC measured after 24 hrs by crystal violet staining based assay relative to control", "type": "functional"}, "[23]": {"system": "Staphylococcus aureus", "assay": "Antibiofilm activity in methicillin-resistant Staphylococcus aureus ATCC 33591 measured after 24 hrs by MTT assay", "type": "functional"}, "[24]": {"system": "Staphylococcus aureus", "assay": "Antibacterial activity against Staphylococcus aureus ATCC 25923 assessed as reduction in GFP expression at 1 to 4 times MIC measured after 1 hr by fluorescence microscopy based analysis", "type": "functional, organism-based"}, "[25]": {"system": "Staphylococcus aureus", "assay": "Induction of morphological changes in methicillin-resistant Staphylococcus aureus ATCC 33591 assessed as appearance of rough cell surface at 1 time MIC measured after 4 hrs by SEM analysis", "type": "functional, organism-based"}, "[26]": {"system": "Staphylococcus aureus", "assay": "Induction of morphological changes in methicillin-resistant Staphylococcus aureus ATCC 33591 assessed as appearance of wrinkled cell surface at 1 to 4 times MIC measured after 4 hrs by SEM analysis", "type": "functional, organism-based"}, "[27]": {"system": "Staphylococcus aureus", "assay": "Induction of morphological changes in methicillin-resistant Staphylococcus aureus ATCC 33591 assessed as appearance of shrinked cell surface at 1 time MIC measured after 4 hrs by SEM analysis", "type": "functional, organism-based"}, "[28]": {"system": "A549", "assay": "Cytotoxicity against human A549 cells at 0 to 40 ug/ml measured after 24 hrs by MTT assay relative to control", "type": "functional", "settings": "dose 0-40 µg/ml"}, "[29]": {"assay": "Acute toxicity in po dosed female C57 mouse assessed as lethal dose measured after 48 hrs", "type": "organism-based", "settings": "in vivo"}, "[30]": {"system": "Staphylococcus aureus", "assay": "Antibacterial activity against methicillin-resistant Staphylococcus aureus ATCC 33591 infected in female C57 mouse systemic infection model assessed as survival rate at 5 mg/kg, po measured upto 7 days relative to control", "type": "functional", "settings": "ATCC 33591, 168 h, time <= 7 day"}, "[31]": {"system": "Staphylococcus aureus", "assay": "(§1) Antibacterial activity against methicillin-resistant Staphylococcus aureus ATCC 33591 infected in female C57 mouse systemic infection model assessed as reduction in bacterial load in spleen at 40 mg/kg, iv administered twice daily and measured after 7 days", "type": "functional", "settings": "time 7 day"}, "[32]": {"assay": "Volume of distribution at steady state in mouse at 5 mg/kg, iv measured after 8 hrs", "type": "ADME, organism-based", "settings": "in vivo, read-out: Vdss"}, "[33]": {"system": "Staphylococcus aureus", "assay": "as §1, with “reduction of mononuclear cell infiltration” for “reduction”, “liver” for “bacterial load in spleen”, “days by H and E staining based analysis” for “days”", "type": "functional, organism-based", "settings": "time 7.0 day"}, "[34]": {"system": "Staphylococcus aureus", "assay": "(§2) Antibacterial activity against methicillin-resistant Staphylococcus aureus ATCC 33591 infected in female C57 mouse systemic infection model assessed as reduction of edema in kidney at 40 mg/kg, iv administered twice daily and measured after 7 days by H and E staining based analysis", "type": "functional, organism-based", "settings": "time 7.0 day"}, "[35]": {"system": "Staphylococcus aureus", "assay": "Antibacterial activity against methicillin-resistant Staphylococcus aureus ATCC 33591 infected in female C57 mouse systemic infection model assessed as reduction in tubular necrosis in kidney at 40 mg/kg, iv administered twice daily and measured after 7 days by H and E staining based analysis", "type": "functional, organism-based", "settings": "time 7.0 day"}, "[36]": {"system": "Staphylococcus aureus", "assay": "as §2, with “reduction” for “reduction of edema”, “disordered myocardial fibers in heart” for “kidney”", "type": "functional, organism-based", "settings": "time 7.0 day"}, "[37]": {"system": "Staphylococcus aureus", "assay": "as §2, with “reduction” for “reduction of edema”, “distorted myocardial fibers in heart” for “kidney”", "type": "functional, organism-based", "settings": "time 7.0 day"}}, "note": "Active and inactive are the calls of the source. The rule behind the calls is not given here."}
{"smiles": "C=C[C@]1(C)C[C@@H](OC(=O)CSc2cc(=O)oc3cc(OC)ccc23)[C@]2(C)[C@H](C)CC[C@]3(CCC(=O)[C@H]32)[C@@H](C)[C@@H]1O", "values": [{"measurement": "MIC", "setting": "[1]", "result": 0.031, "unit": "µg/mL"}, {"measurement": "MIC", "setting": "[2]", "result": 0.031, "unit": "µg/mL"}, {"measurement": "MIC", "setting": "[3]", "result": 0.016, "unit": "µg/mL"}, {"measurement": "MIC", "setting": "[4]", "result": 0.031, "unit": "µg/mL"}, {"measurement": "MIC", "setting": "[5]", "result": 0.063, "unit": "µg/mL"}, {"measurement": "Ratio", "setting": "[6]", "result": 2}, {"measurement": "Ratio", "setting": "[7]", "result": ">4"}, {"measurement": "Ratio", "setting": "[8]", "result": 4}, {"measurement": "MIC", "setting": "[9]", "result": 0.063, "unit": "µg/mL"}, {"measurement": "MIC", "setting": "[10]", "result": 0.063, "unit": "µg/mL"}, {"measurement": "MIC", "setting": "[11]", "result": 0.031, "unit": "µg/mL"}, {"measurement": "Ratio", "setting": "[12]", "result": 2}, {"measurement": "Ratio", "setting": "[13]", "result": 2}, {"measurement": "Activity", "setting": "[14]", "result": "Active"}, {"measurement": "Activity", "setting": "[15]", "result": "Active"}, {"measurement": "Activity", "setting": "[16]", "result": "Dose-dependent-effect"}, {"measurement": "fold change (FC)", "setting": "[17]", "result": 4}, {"measurement": "Activity", "setting": "[18]", "result": "inactive"}, {"measurement": "PAE", "setting": "[19]", "result": 1.9, "unit": "h"}, {"measurement": "Activity", "setting": "[20]", "result": 50.42, "unit": "%"}, {"measurement": "Activity", "setting": "[21]", "result": "Dose-dependent-effect"}, {"measurement": "Activity", "setting": "[22]", "result": 30.31, "unit": "%"}, {"measurement": "MBEC", "setting": "[23]", "result": 8, "unit": "µg/mL"}, {"measurement": "Activity", "setting": "[24]", "result": "Active"}, {"measurement": "Activity", "setting": "[25]", "result": "Active"}, {"measurement": "Activity", "setting": "[26]", "result": "Active"}, {"measurement": "Activity", "setting": "[27]", "result": "Active"}, {"measurement": "Activity", "setting": "[28]", "result": ">85", "unit": "%"}, {"measurement": "LD50 at 48 h", "setting": "[29]", "result": 2000, "unit": "mg/kg"}, {"measurement": "survival at 5 mg/kg", "setting": "[30]", "result": 40, "unit": "%"}, {"measurement": "Activity", "setting": "[31]", "result": 1.68, "unit": "log10CFU/g"}, {"measurement": "Vd", "setting": "[32]", "result": 1.76, "unit": "L/kg"}, {"measurement": "Activity", "setting": "[33]", "result": "Active"}, {"measurement": "Activity", "setting": "[34]", "result": "Active"}, {"measurement": "Activity", "setting": "[35]", "result": "Active"}, {"measurement": "Activity", "setting": "[36]", "result": "Active"}, {"measurement": "Activity", "setting": "[37]", "result": "Active"}]}
